Data from patent US20120121591A1 (priority 2009, published 2012).
Positions of bridges follow the written chain, without caps; N, C: chain ends. Residues, ends and D or L forms follow the SMILES beside them.

Assays:
Format in all cases: cell-based
[1] = system: IFN-g secretion from T cells in human whole blood; details: read-out: WB (IFNg) IC50 (nM, Avg)
[2] = system: IL-2 secretion from T cells in human whole blood; details: read-out: WB (IL-2) IC50 (nM, Avg)
hKv1.3 = hKv1.3 (Homo sapiens, UniProt P22001); assay: cell-based; details: Kv1.3 (IWQ) IC50 (nM, Avg)
Sequence of hKv1.3 (P22001 whole entry): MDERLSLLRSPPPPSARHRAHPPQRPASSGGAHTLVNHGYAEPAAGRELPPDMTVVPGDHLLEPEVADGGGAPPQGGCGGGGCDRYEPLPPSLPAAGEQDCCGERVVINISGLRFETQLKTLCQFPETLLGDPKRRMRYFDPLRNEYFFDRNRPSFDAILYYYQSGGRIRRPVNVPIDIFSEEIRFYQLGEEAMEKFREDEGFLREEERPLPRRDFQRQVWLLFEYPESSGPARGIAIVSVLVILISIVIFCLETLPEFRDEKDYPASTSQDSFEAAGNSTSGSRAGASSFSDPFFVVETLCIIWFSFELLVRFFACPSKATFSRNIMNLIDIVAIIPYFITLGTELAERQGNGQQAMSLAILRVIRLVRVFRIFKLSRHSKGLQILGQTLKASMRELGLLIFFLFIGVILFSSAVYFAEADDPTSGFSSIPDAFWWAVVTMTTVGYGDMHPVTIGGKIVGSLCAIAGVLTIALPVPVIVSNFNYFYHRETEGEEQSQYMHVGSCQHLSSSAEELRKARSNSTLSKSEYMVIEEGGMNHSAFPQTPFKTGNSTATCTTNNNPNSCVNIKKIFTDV

CC[C@H](C)[C@@H]1NC(=O)[C@@H](NC(=O)[C@H](CO)NC(=O)[C@@H](N)CCCNC(=N)N)CSSC[C@@H](C(=O)O)NC(=O)[C@H]([C@@H](C)O)NC(=O)CNC(=O)[C@@H]2CSSC[C@@H]3NC(=O)[C@H](CCC(N)=O)NC(=O)[C@H](Cc4ccccc4)NC(=O)[C@H](C)NC(=O)[C@H]([C@@H](C)O)NC(=O)[C@H](CSSC[C@H](NC(=O)[C@H](Cc4ccccc4)NC(=O)[C@H](CO)NC(=O)[C@H](CC(C)C)NC(=O)[C@H](CCCNC(=N)N)NC(=O)[C@H](C)NC(=O)[C@H](CCCCN)NC(=O)[C@H](CCSC)NC(=O)[C@H](CO)NC(=O)[C@H](Cc4c[nH]cn4)NC(=O)[C@H](CCCCN)NC3=O)C(=O)N[C@@H](CCCNC(=N)N)C(=O)N[C@@H](CCCCN)C(=O)N[C@@H]([C@@H](C)O)C(=O)N2)NC(=O)[C@H](CCCNC(=N)N)NC(=O)[C@H](CO)NC(=O)[C@H](CCCCN)NC(=O)[C@@H]2CCCN2C(=O)[C@H]([C@@H](C)CC)NC(=O)[C@H]([C@@H](C)O)NC(=O)[C@H](CC(=O)O)NC1=O [Tyr23(A)]
IC50 [1]: 5.44 nM
IC50 [2]: 3.75 nM
IC50 (hKv1.3): 0.621 nM

CC[C@H](C)[C@@H]1NC(=O)[C@@H](NC(=O)[C@H](CO)NC(=O)[C@@H](N)CCCNC(=N)N)CSSC[C@@H](C(=O)O)NC(=O)[C@H]([C@@H](C)O)NC(=O)CNC(=O)[C@@H]2CSSC[C@@H]3NC(=O)[C@H](CCC(N)=O)NC(=O)[C@H](Cc4ccccc4)NC(=O)[C@H](C)NC(=O)[C@H]([C@@H](C)O)NC(=O)[C@H](CSSC[C@H](NC(=O)[C@H](Cc4ccccc4)NC(=O)[C@H](CO)NC(=O)[C@H](CC(C)C)NC(=O)[C@H](CCCNC(=N)N)NC(=O)[C@H](Cc4ccc(O)cc4)NC(=O)[C@H](CCCCN)NC(=O)[C@H](CCCCN)NC(=O)[C@H](CO)NC(=O)[C@H](Cc4c[nH]cn4)NC(=O)[C@H](CCCCN)NC3=O)C(=O)N[C@@H](CCCNC(=N)N)C(=O)N[C@@H](CCCCN)C(=O)N[C@@H]([C@@H](C)O)C(=O)N2)NC(=O)[C@H](CCCNC(=N)N)NC(=O)[C@H](CO)NC(=O)[C@H](CCCCN)NC(=O)[C@@H]2CCCN2C(=O)[C@H]([C@@H](C)CC)NC(=O)[C@H]([C@@H](C)O)NC(=O)[C@H](CC(=O)O)NC1=O [[Lys21]ShK]
IC50 [1]: 4.82 nM
IC50 [2]: 3.59 nM
IC50 (hKv1.3): 0.822 nM

CC[C@H](C)[C@@H]1NC(=O)[C@H]([C@@H](C)O)NC(=O)[C@H](CC(=O)O)NC(=O)[C@H](CCC(=O)O)NC(=O)[C@@H](NC(=O)[C@H](CO)NC(=O)[C@@H](N)CCCNC(=N)N)CSSC[C@@H](C(N)=O)NC(=O)[C@H]([C@@H](C)O)NC(=O)CNC(=O)[C@@H]2CSSC[C@@H]3NC(=O)[C@H](CCCCN)NC(=O)[C@H](Cc4ccccc4)NC(=O)[C@H](C)NC(=O)[C@H]([C@@H](C)O)NC(=O)[C@H](CSSC[C@H](NC(=O)[C@H](Cc4ccccc4)NC(=O)[C@H](CO)NC(=O)[C@H](CC(C)C)NC(=O)[C@H](CCCNC(=N)N)NC(=O)[C@H](Cc4ccc(O)cc4)NC(=O)[C@H](CCCCN)NC(=O)[C@H](CCSC)NC(=O)[C@H](CO)NC(=O)[C@H](Cc4c[nH]cn4)NC(=O)[C@H](CCCNC(=N)N)NC3=O)C(=O)N[C@@H](CCCCN)C(=O)N[C@@H](CCCNC(=N)N)C(=O)N[C@@H]([C@@H](C)O)C(=O)N2)NC(=O)[C@H](CCCNC(=N)N)NC(=O)[C@H](CCC(=O)O)NC(=O)[C@H](CCCCN)NC(=O)[C@@H]2CCCN2C1=O [[Glu4,10; Lys16,29;Arg18,30]ShK-amide] (H-RSCEDTIPKERCTAFKCRHSMKYRLSFCKRTCGTC-NH2; disulfide 3-35, 12-28, 17-32)
IC50 [1]: 0.217 nM
IC50 [2]: 0.114 nM
IC50 (hKv1.3): 0.064 nM

CCCC[C@@H]1NC(=O)[C@H](CO)NC(=O)[C@H](Cc2c[nH]cn2)NC(=O)[C@H](CCC(=O)O)NC(=O)[C@@H]2CSSC[C@@H]3NC(=O)[C@H]([C@@H](C)O)NC(=O)[C@H](CCCCN)NC(=O)[C@H](CCCNC(=N)N)NC(=O)[C@H](CSSC[C@H](NC(=O)[C@H](CCCNC(=N)N)NC(=O)[C@H](CO)NC(=O)[C@H](CCCCN)NC(=O)[C@@H]4CCCN4C(=O)[C@H]([C@@H](C)CC)NC(=O)[C@H]([C@@H](C)O)NC(=O)[C@H](CC(=O)O)NC(=O)[C@H]([C@@H](C)CC)NC(=O)[C@@H](NC(=O)[C@H](CO)NC(=O)[C@@H](N)CCCNC(=N)N)CSSC[C@@H](C(N)=O)NC(=O)[C@H]([C@@H](C)O)NC(=O)CNC3=O)C(=O)N[C@@H]([C@@H](C)O)C(=O)N[C@@H](C)C(=O)N[C@@H](Cc3ccccc3)C(=O)N[C@@H](CCCCN)C(=O)N2)NC(=O)[C@H](Cc2ccccc2)NC(=O)[C@H](CO)NC(=O)[C@H](CC(C)C)NC(=O)[C@H](CCCNC(=N)N)NC(=O)[C@H](Cc2ccc(O)cc2)NC(=O)[C@H](CCCCN)NC1=O [[Lys16,Glu18,Nle21]ShK-amide]
IC50 [1]: 0.929 nM
IC50 [2]: 0.477 nM
IC50 (hKv1.3): 0.28 nM

CCCC[C@@H]1NC(=O)[C@H](CO)NC(=O)[C@H](Cc2c[nH]cn2)NC(=O)[C@H](CCCCN)NC(=O)[C@@H]2CSSC[C@@H]3NC(=O)[C@H]([C@@H](C)O)NC(=O)[C@H](CCCCN)NC(=O)[C@H](CCCNC(=N)N)NC(=O)[C@H](CSSC[C@H](NC(=O)[C@H](CCCNC(=N)N)NC(=O)[C@H](CO)NC(=O)[C@H](CCCCN)NC(=O)[C@@H]4CCCN4C(=O)[C@H]([C@@H](C)CC)NC(=O)[C@H]([C@@H](C)O)NC(=O)[C@H](CC(=O)O)NC(=O)[C@H]([C@@H](C)CC)NC(=O)[C@@H](NC(=O)[C@H](CO)NC(=O)[C@@H](N)CCCNC(=N)N)CSSC[C@@H](C(N)=O)NC(=O)[C@H]([C@@H](C)O)NC(=O)CNC3=O)C(=O)N[C@@H]([C@@H](C)O)C(=O)N[C@@H](C)C(=O)N[C@@H](Cc3ccccc3)C(=O)N[C@@H](CCC(N)=O)C(=O)N2)NC(=O)[C@H](Cc2ccccc2)NC(=O)[C@H](CO)NC(=O)[C@H](CC(C)C)NC(=O)[C@H](CCCNC(=N)N)NC(=O)[C@H](Cc2ccc(O)cc2)NC(=O)[C@H](CCCCN)NC1=O [[Nle21]ShK-amide]
IC50 [1]: 1.13 nM
IC50 [2]: 0.325 nM
IC50 (hKv1.3): 0.04 nM

CC[C@H](C)[C@@H]1NC(=O)[C@@H](NC(=O)[C@H](CO)NC(=O)[C@@H](N)CCCNC(=N)N)CSSC[C@@H](C(=O)O)NC(=O)[C@H]([C@@H](C)O)NC(=O)[C@H](C)NC(=O)[C@@H]2CSSC[C@@H]3NC(=O)[C@H](CCC(N)=O)NC(=O)[C@H](Cc4ccccc4)NC(=O)[C@H](C)NC(=O)[C@H]([C@@H](C)O)NC(=O)[C@H](CSSC[C@H](NC(=O)[C@H](Cc4ccccc4)NC(=O)[C@H](CO)NC(=O)[C@H](CC(C)C)NC(=O)[C@H](CCCNC(=N)N)NC(=O)[C@H](Cc4ccc(O)cc4)NC(=O)[C@H](CCCCN)NC(=O)[C@H](CCSC)NC(=O)[C@H](CO)NC(=O)[C@H](Cc4c[nH]cn4)NC(=O)[C@H](CCCCN)NC3=O)C(=O)N[C@@H](CCCNC(=N)N)C(=O)N[C@@H](CCCCN)C(=O)N[C@@H]([C@@H](C)O)C(=O)N2)NC(=O)[C@H](CCCNC(=N)N)NC(=O)[C@H](CO)NC(=O)[C@H](CCCCN)NC(=O)[C@@H]2CCCN2C(=O)[C@H]([C@@H](C)CC)NC(=O)[C@H]([C@@H](C)O)NC(=O)[C@H](CC(=O)O)NC1=O [[Ala33]ShK]
IC50 [1]: 0.1 nM
IC50 [2]: 0.049 nM
IC50 (hKv1.3): 0.075 nM

CC[C@H](C)[C@@H]1NC(=O)[C@@H](NC(=O)[C@H](CO)NC(=O)[C@@H](N)CCCNC(=N)N)CSSC[C@@H](C(=O)N[C@@H](C)C(=O)O)NC(=O)[C@H]([C@@H](C)O)NC(=O)CNC(=O)[C@@H]2CSSC[C@@H]3NC(=O)[C@H](CCCCN)NC(=O)[C@H](Cc4ccccc4)NC(=O)[C@H](C)NC(=O)[C@H]([C@@H](C)O)NC(=O)[C@H](CSSC[C@H](NC(=O)[C@H](Cc4ccccc4)NC(=O)[C@H](CO)NC(=O)[C@H](CC(C)C)NC(=O)[C@H](CCCNC(=N)N)NC(=O)[C@H](Cc4ccc(O)cc4)NC(=O)[C@H](CCCCN)NC(=O)[C@H](CCC(N)=O)NC(=O)[C@H](CO)NC(=O)[C@H](Cc4c[nH]cn4)NC(=O)[C@H](CCCCN)NC3=O)C(=O)N[C@@H](CCCNC(=N)N)C(=O)N[C@@H](CCCCN)C(=O)N[C@@H]([C@@H](C)O)C(=O)N2)NC(=O)[C@H](CCCNC(=N)N)NC(=O)[C@H](CO)NC(=O)[C@H](CCCCN)NC(=O)[C@@H]2CCCN2C(=O)[C@H]([C@@H](C)CC)NC(=O)[C@H]([C@@H](C)O)NC(=O)[C@H](CC(=O)O)NC1=O [[Lys16,Gln21]ShK-Ala]
IC50 [1]: 0.206 nM
IC50 [2]: 0.168 nM
IC50 (hKv1.3): 4.01 nM

CCCC[C@@H]1NC(=O)[C@H](CO)NC(=O)[C@H](Cc2c[nH]cn2)NC(=O)[C@H](CCCCN)NC(=O)[C@@H]2CSSC[C@@H]3NC(=O)[C@H]([C@@H](C)O)NC(=O)[C@H](CCCCN)NC(=O)[C@H](CCCNC(=N)N)NC(=O)[C@H](CSSC[C@H](NC(=O)[C@H](CCCNC(=N)N)NC(=O)[C@H](CO)NC(=O)[C@H](CCCCN)NC(=O)[C@@H]4CCCN4C(=O)[C@H]([C@@H](C)CC)NC(=O)[C@H]([C@@H](C)O)NC(=O)[C@H](CC(=O)O)NC(=O)[C@H]([C@@H](C)CC)NC(=O)[C@@H](NC(=O)[C@H](CO)NC(=O)[C@@H](N)CCCNC(=N)N)CSSC[C@@H](C(N)=O)NC(=O)[C@H]([C@@H](C)O)NC(=O)CNC3=O)C(=O)N[C@@H]([C@@H](C)O)C(=O)N[C@@H](C)C(=O)N[C@@H](Cc3ccccc3)C(=O)N[C@@H](CC(N)=O)C(=O)N2)NC(=O)[C@H](Cc2ccccc2)NC(=O)[C@H](CO)NC(=O)[C@H](CC(C)C)NC(=O)[C@H](CCCNC(=N)N)NC(=O)[C@H](Cc2ccc(O)cc2)NC(=O)[C@H](CCCCN)NC1=O [[Asn16,Nle21]ShK-amide]
IC50 [1]: 1.07 nM
IC50 [2]: 0.689 nM
IC50 (hKv1.3): 0.171 nM
